Data taken from PMC10045298, “In Vitro Pharmacokinetic Behavior of Antiviral 3-Amidinophenylalanine Derivatives in Rat, Dog and Monkey Hepatocytes” (Biomedicines, 2023).
“Also recorded” adds a separate entry of the source. Read-outs that look alike come from different tables or passages of the source.

Tests used:
human serum albumin = conditions: cited from earlier work
human CYP3A4 = conditions: cited from earlier work
cynomolgus monkey CYP1A2 = conditions: cited from earlier work
CYP2C19 = conditions: cited from earlier work
CYP2C9 = conditions: cited from earlier work
CYP1A2 = conditions: cited from earlier work
SARS-CoV-2 = test system: SARS-CoV-2; design: method as in PMID 32703818; conditions: Calu-3 cells (airway epithelial cells) infected with SARS-CoV-2; cited from earlier work
matriptase = conditions: previous enzyme kinetic measurements, cited from earlier work
dog primary hepatocytes = experiment: Depletion of inhibitors in dog primary hepatocyte suspension (LC-MS/MS), PK prediction; type: in vitro ADME; conditions: for Extraction Ratio EH / Classification / Predicted Cl CLH: dog; for Depletion of parent compound (in words): 10 µM; for Classification: 0.3 cut-off of E between low and intermediate extraction; for Predicted Cl CLH: fu = 1
Protocol: (§1) Cryopreserved rat, dog and cynomolgus monkey primary hepatocytes were obtained from Primacyt (Primacyt, Schwerin, Germany). Hepatocytes were thawed using cryopreserved hepatocyte thawing medium (Primacyt, Schwerin, Germany), and cells were centrifuged (10 min, 100× g, 20 °C) to remove supernatants. The viability of hepatocytes was examined by the Trypan blue exclusion method, and it was confirmed that more than 90% of the cells were alive. Cell suspensions were then diluted with serum-free maintenance medium (Primacyt, Schwerin, Germany) after cell counting in Bürker chamber to the appropriate concentration (original concentration of the viable hepatocytes was 10^7 cells/mL).
(§2) Stock solutions of MI-463, MI-472, MI-485 and MI-1900 (10 mM) in dimethyl-sulfoxide were kept at −20 °C. Time courses of the unchanged amount of the inhibitors (in %) after incubation with hepatocytes were measured. Each compound was incubated in cell suspension (at the concentration of 5 × 10^5 cells/mL in 6-well plates) at constant and low-speed shaking at 37 °C in a humid atmosphere containing 5% CO2. […] Cells were incubated with serum-free maintenance medium either without or with each selected MI for 5 h. At various time points (0, 30, 60, 120, 180, and 300 min), the incubation mixtures were sampled (aliquots: 0.15 mL) and terminated by the addition of 0.1 mL ice-cold acetonitrile. The cell debris was separated by centrifugation, and the supernatants were analyzed by LC-MS/MS for quantitation of the remaining amount of the inhibitors.
(§3) For the LC-MS/MS investigations, 120 μL from the incubation mixture samples obtained as described above was removed and mixed with 315 μL chilled acetonitrile and 15 μL triphenylphosphate solution (TPP; 12000 ng/mL in acetonitrile) used as internal standard for the quantitation. After vortex mixing, the samples were centrifuged at 4 °C and 13300 RPM for 10 min. The supernatant was filtered through a PVDF syringe filter of 0.22 μm pore diameter, then transferred to chromatographic vials.
(§4) The LC-MS/MS instrument used for analyzing the MI compounds was a Shimadzu LCMS 8030+ system operated with an electrospray ion source (ESI) in positive multiple reaction monitoring (MRM) mode. A Phenomenex Kinetex C18 EVO 100 × 4.6 mm ID (2.6 µm particle size) column equipped with a 40 × 2 mm C18 guard column was used for the chromatographic separation. Gradient elution was used with eluents “A”: 50 mM ammonium acetate in water (pH 5 set by acetic acid) and “B”: 0.1 v/v% formic acid in acetonitrile. The flow rate was 0.4 mL/min, a chromatographic run took 8 min. The column oven was set to 30 °C, and the autoinjector’s temperature was at 6 °C. The injected volume was 10 µL. Other MS parameters were as follows: interface 4.5 kV; interface temperature 350 °C; desolvation line 300 °C; heat block 400 °C; detector 1.78 kV, nebulizing gas (N2) 3 liters/min, drying gas (N2) 15 liters/min; collision gas (Ar) 230 kPa.
(§5) The intrinsic clearance for hepatocytes (Clint) [mL (min 5 × 10^5 cells) ^−1] was calculated from the decrease in the concentration of MI compounds as follows: Clint = β=ln2/t1/2 [28] For scaling up, the Clint value to obtain Clint per whole liver (g)/bw(kg), the cell concentration in liver, the average liver weight and average body weight parameters were used (Table 1). The value for hepatic clearance (ClH) was calculated as follows: ClH=Clintliver/bw∗fu∗Qplasma/(Clintliver/bw∗fu)+Qplasma where the flow rate of Qplasma = QH* plasma/blood ratio. To calculate ClH, the hepatic flow rate, plasma/blood ratio (Table 1) and fu = 1 values were used. (QH is the hepatic blood flow, while fu is the unbound fraction of the compound.) The hepatic extraction ratio was defined as E = ClH/QH, and the bioavailability (%) was F = (1 − E) * 100 [28, 31, 32, 33].

[1] = as above; type: in vitro ADME; conditions: dog, cryopreserved primary hepatocytes in suspension, dog hepatocytes, 10 µM inhibitor, 5 × 10^5 cells/mL, 0-300 min, scaled to liver/bw
Protocol: as §1, §2, §3, §4, §5

[2] = test system: cynomolgus monkey primary hepatocytes; experiment: Depletion of inhibitors in cynomolgus monkey primary hepatocyte suspension (LC-MS/MS), PK prediction; type: in vitro ADME; conditions: for Depletion of parent compound (in words): cynomolgus monkey hepatocytes, 10 µM, 0-300 min; for Extraction Ratio EH / Classification / Predicted Cl CLH: macaque; for Classification: 0.3 cut-off of E between low and intermediate extraction; for Predicted Cl CLH: fu = 1
Protocol: as §1, §2, §3, §4, §5

[3] = as above; type: in vitro ADME; conditions: cynomolgus monkey, cryopreserved primary hepatocytes in suspension; macaque hepatocytes, 10 µM inhibitor, 5 × 10^5 cells/mL, 0-300 min, scaled to liver/bw
Protocol: as §1, §2, §3, §4, §5

TMPRSS2 = conditions: competitive inhibition; previous enzyme kinetic measurements; cited from earlier work
[4] = Depletion of inhibitors in rat primary hepatocyte suspension (LC-MS/MS), PK prediction; type: in vitro ADME; conditions: cryopreserved primary hepatocytes in suspension; rat hepatocytes, 10 µM inhibitor, 5 × 10^5 cells/mL, 0-300 min, scaled to liver/bw
Protocol: as §1, §2, §3, §4, §5

rat primary hepatocytes = experiment: as above; type: in vitro ADME; conditions: for Extraction Ratio EH / Classification / Predicted Cl CLH: rat; for Classification: 0.3 cut-off of E between low and intermediate extraction; for Predicted Cl CLH: fu = 1
Protocol: as §1, §2, §3, §4, §5

H9N2 influenza virus = conditions: MDCK cells, matriptase-dependent; cited from earlier work

Compound	Binding to human serum albumin (human serum albumin)	Modulation of human CYP3A4 function (human CYP3A4)	Modulation of cynomolgus monkey CYP1A2 (cynomolgus monkey CYP1A2)	Influence on CYP2C19 activity (CYP2C19)	Influence on CYP2C9 activity (CYP2C9)	Influence on CYP1A2 activity (CYP1A2)	SARS-CoV-2 virus titer (SARS-CoV-2)	Extraction Ratio EH (dog primary hepatocytes)	Depletion of parent compound (in words) (dog primary hepatocytes; dog hepatocytes, 0-300 min)	Classification (dog primary hepatocytes)	Predicted Cl CLH (dog primary hepatocytes)	CLint scaled at 10 µM [1]	Extraction Ratio EH [2]	Classification [2]	Predicted Cl CLH [2]	CLint scaled at 10 µM [3]	CLint scaled at 10 µM [4]	Extraction Ratio EH (rat primary hepatocytes)	Classification (rat primary hepatocytes)	Predicted Cl CLH (rat primary hepatocytes)	also measured
N=C(N)c1cccc(C[C@H](NS(=O)(=O)c2cccc(-c3ccc(Cl)cc3Cl)c2)C(=O)N2CCC(CCN)CC2)c1.O=C(O)C(F)(F)F.O=C(O)C(F)(F)F [MI-432]	did not bind to human serum albumin to a great extent	could modulate	could modulate	did not influence the activity	did not influence the activity	did not influence the activity	could successfully lower viral titers; also recorded: effectively decrease SARS-CoV-2 virus titer	–	–	–	–	–	–	–	–	–	–	–	–	–	–
COc1ccc(-c2cccc(S(=O)(=O)N[C@@H](Cc3cccc(C(=N)N)c3)C(=O)N3CCC(NC(=O)NC4CCCCC4)CC3)c2)c(OC)c1 [MI-463]	did not bind to human serum albumin to a great extent	could modulate	could modulate	did not influence the activity	did not influence the activity	did not influence the activity	–	0.299	slowly decreased from 180 min; also recorded: pronounced stability against biotransformation	Low-extraction drug	9.25	19.5 mL/min/kg	0.121	Low-extraction drug	5.27	6.58 mL/min/kg	31.9 mL/min/kg	0.289	Low-extraction drug	15.97	Ki (matriptase): very low, nanomolar; Depletion of parent compound (in words) [2]: elevated depletion rates; Ki (TMPRSS2): very low, nanomolar; Depletion of parent compound (in words) (rat primary hepatocytes; rat hepatocytes, 10 µM, 0-300 min): elevated depletion rates
COc1ccc(-c2cccc(S(=O)(=O)N[C@@H](Cc3cccc(C(=N)N)c3)C(=O)N3CCC(N)CC3)c2)c(OC)c1 [MI-472]	–	–	–	–	–	–	–	0.343	significantly depleted even at 30 min	Intermediate-extraction drug	10.61	26.7 mL/min/kg	0.190	Low-extraction drug	8.27	12 mL/min/kg	35.6 mL/min/kg	0.305	Intermediate-extraction drug	16.85	–
COc1ccc(-c2cccc(S(=O)(=O)N[C@@H](Cc3cccc(C(=N)N)c3)C(=O)N3CCC(NC(=O)NC(C)(C)C)CC3)c2)c(OC)c1 [MI-485]	–	–	–	–	–	–	–	0.321	significantly depleted even at 30 min	Intermediate-extraction drug	9.93	22.8 mL/min/kg	0.183	Low-extraction drug	7.98	11.4 mL/min/kg	37.8 mL/min/kg	0.314	Intermediate-extraction drug	17.33	Ki (matriptase; read-out: Ki): < 5 nM; Inhibition of H9N2 influenza virus replication (H9N2 influenza virus): showed inhibition
COc1ccc(-c2cccc(S(=O)(=O)N[C@@H](Cc3cccc(C(=N)N)c3)C(=O)N3CCN(C(=O)NC4CCCCC4)CC3)c2)c(OC)c1 [MI-1900]	did not bind to human serum albumin to a great extent	could modulate	could modulate	did not influence the activity	did not influence the activity	did not influence the activity	could successfully lower viral titers; also recorded: effectively decrease SARS-CoV-2 virus titer	0.212	significantly depleted even at 30 min	Low-extraction drug	6.56	10.5 mL/min/kg	0.230	Low-extraction drug	10.03	16.1 mL/min/kg	33.8 mL/min/kg	0.298	Low-extraction drug	16.43	Ki (matriptase): very low, nanomolar; CLint scaled (dog primary hepatocytes; dog hepatocytes, 10 µM inhibitor, 5 × 10^5 cells/mL, 0-300 min, scaled to liver/bw): 10.5 mL/min/kg; Depletion of parent compound (in words) [2]: depleted at the highest speed; also recorded: rapidly; also recorded: depleted faster; Ki (TMPRSS2): very low, nanomolar
